Test results from patent US20240082406A1, “BENZOHETEROCYCLE SUBSTITUTED TETRAHYDROISOQUINOLINE COMPOUND” (SHANGHAI JEMINCARE PHARMACEUTICAL CO., LTD, priority 2020, published 2024).

Tests used:
[1] = target: T1, NHE3 (UniProt P48764); test: Cell-based NHE3 activity under transient conditions (BCECF-AM intracellular pH, FLIPR); parameters: species or system Rat or Human; details: embodiment compounds, opossum kidney cells expressing NHE3, read-out: Cell-based NHE3 inhibition IC50 (uM) under transient conditions
T1 sequence (P48764 1-834): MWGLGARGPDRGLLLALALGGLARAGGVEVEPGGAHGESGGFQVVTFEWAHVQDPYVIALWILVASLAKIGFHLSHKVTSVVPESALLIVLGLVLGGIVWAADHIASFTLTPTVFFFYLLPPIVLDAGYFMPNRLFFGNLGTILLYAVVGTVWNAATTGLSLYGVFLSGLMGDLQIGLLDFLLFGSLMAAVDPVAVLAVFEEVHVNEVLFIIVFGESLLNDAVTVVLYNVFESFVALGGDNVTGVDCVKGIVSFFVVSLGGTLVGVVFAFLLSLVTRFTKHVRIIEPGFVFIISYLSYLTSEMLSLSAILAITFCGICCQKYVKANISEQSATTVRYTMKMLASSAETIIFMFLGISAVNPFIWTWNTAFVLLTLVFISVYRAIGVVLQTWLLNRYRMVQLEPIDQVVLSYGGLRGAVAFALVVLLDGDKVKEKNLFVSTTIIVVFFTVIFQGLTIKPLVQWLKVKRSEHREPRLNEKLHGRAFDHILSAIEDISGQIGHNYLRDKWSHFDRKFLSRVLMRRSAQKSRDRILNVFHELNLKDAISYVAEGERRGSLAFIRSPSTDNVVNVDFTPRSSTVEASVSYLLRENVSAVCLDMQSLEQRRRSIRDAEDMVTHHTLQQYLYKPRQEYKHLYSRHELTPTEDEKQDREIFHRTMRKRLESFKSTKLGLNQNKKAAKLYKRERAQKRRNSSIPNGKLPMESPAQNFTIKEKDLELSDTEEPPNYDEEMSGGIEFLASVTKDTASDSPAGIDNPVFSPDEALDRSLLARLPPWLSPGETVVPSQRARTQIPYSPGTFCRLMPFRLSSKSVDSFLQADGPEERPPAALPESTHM
From the text: (§1) Opossum kidney (OK) cells were obtained from ATCC and cultured and expanded according to its instructions. OK monoclonal stable cell lines expressing the Rat NHE3 (Gene Bank registration number: M85300) protein and OK monoclonal stable cell lines expressing the Human NHE3 (Gene Bank registration number: NM_004174.1) protein were constructed by lentivirus infection.
The general procedure of the cell-based NHE3 activity experiments under transient conditions (transient inhibition) was based on an adaptation method of the pH-sensitive dye method originally reported by Tisen (Proc. Natl. Acad. Sci. USA) (1984) 81(23):7436-7440) to measure rat NHE3-mediated Na+-dependent reverse H+ transport, and was optimized according to the instructions “Measuring Intracellular pH With the FLIPR and FLIPR 384 Fluorometric Imaging Plate Reader Systems” published by Molecular Devices. The specific method was: Rat NHE3 OK monoclonal cells or Human NHE3 OK monoclonal cells were inoculated into 384-well plates and grew overnight. The medium was aspirated from the wells and the cells were washed twice with FLIPR buffer (Hank's BSS 1×, 20 mM HEPES, 1% BSA) followed by incubation with FLIPR buffer (Hank's BSS 1×, 20 mM HEPES, 1% BSA) containing […] BCECF-AM (Invitrogen) for 45 min at room temperature. Subsequently, […] of 200 mM NH4Cl-HEPES buffer (Hank's BSS 1×, 20 mM HEPES, 200 mM NH4Cl) was added and the cells were incubated for 15-20 minutes at room temperature. Cells were washed twice with 20 mM NH4Cl-HEPES buffer (Hank's BSS 1×, 20 mM HEPES, 20 mM NH4Cl). NHE3-mediated pH sensitization in cells was normalized by addition of containing 0.4 mM amiloride (EIPA) and […] test compound or Na-HEPES buffer (100 mM NaCl, 50 mM HEPES, 10 mM glucose, 5 mM KCl, 2 mM CaCl2), 1 mM MgCl2, pH 7.4) and monitoring of BCECF-AM fluorescence at λem 535 nm excitated by λex 440 nm and λex 490 nm respectively. Ratio=fluorescence value (λex 490 nm)/fluorescence value (λex 440 nm) was set, the average value of the Ratio difference between the end time and the start time between the duplicate wells was calculated, the average value and the concentration value of the compound were drawn, and Graphpad Prism software was used to estimate IC50 value.

[2] = target: T1, NHE3; test: Cell-based NHE3 activity under persistent conditions (60 min pre-incubation, compound removed); parameters: species or system Rat or Human; details: opossum kidney cells expressing NHE3, read-out: Cell-based NHE3 inhibition IC50 (uM) under persistent conditions
From the text: as §1
The general procedure of the cell-based NHE3 activity assay under persistent conditions (persistent inhibition) was: Rat NHE3 OK monoclonal cells or Human NHE3 OK monoclonal cells were inoculated into 384-well plates and grew overnight. The medium was aspirated from the wells and the cells were washed twice with FLIPR buffer (Hank's BSS 1×, 20 mM HEPES, 1% BSA) followed by the addition of Na-HEPES buffer containing […] test compound (100 mM NaCl, 50 mM HEPES, 10 mM glucose, 5 mM KCl, 2 mM CaCl2, 1 mM MgCl2, pH 7.4) and incubated for 60 minutes at room temperature. The compounds were aspirated from the wells and incubated with FLIPR buffer (Hank's BSS 1×, 20 mM HEPES, 1% BSA) containing […] BCECF-AM (Invitrogen) for 45 minutes at room temperature. Subsequently, […] of 200 mM NH4Cl-HEPES buffer (Hank's BSS 1×, 20 mM HEPES, 200 mM NH4Cl) was added and incubated for 15-20 minutes at room temperature. The cells were washed twice with 20 mM NH4Cl-HEPES buffer (Hank's BSS 1×, 20 mM HEPES, 20 mM […]). […] Ratio=fluorescence value (λex 490 nm)/fluorescence value (λex 440 nm) was set, the average value of the Ratio difference between the end time and the start time between the duplicate wells was calculated, the average value and the concentration value of the compound were drawn, and the dose-response-inhibition (four parameters) equation was used to estimate EC50 value by GraphpadPrism.

SMILES | IC50 [1] [µM] | IC50 [2] [µM]
CN1Cc2c(Cl)cc(Cl)cc2C(c2ccc3c(c2)C(=O)N(CCOCCOCCOCCNC(=O)CCC(N)(CCC(=O)NCCOCCOCCOCCN2Cc4ccc(C5CN(C)Cc6c(Cl)cc(Cl)cc65)cc4C2=O)CCC(=O)NCCOCCOCCOCCN2Cc4ccc(C5CN(C)Cc6c(Cl)cc(Cl)cc65)cc4C2=O)C3)C1 (stereo not drawn) [Embodiment I3] | 0.19 | 0.13
CN1Cc2c(Cl)cc(Cl)cc2C(c2ccc3c(c2)C(=O)N(CCOCCOCCOCCNC(=O)COCC(=O)NCCOCCOCCOCCN2Cc4ccc(C5CN(C)Cc6c(Cl)cc(Cl)cc65)cc4C2=O)C3)C1 (stereo not drawn) [Embodiment J1] | 0.43 | 0.03
CN1Cc2c(Cl)cc(Cl)cc2C(c2ccc3c(c2)C(=O)N(CCOCCOCCOCCNC(=O)[C@H](O)[C@@H](O)C(=O)NCCOCCOCCOCCN2Cc4ccc(C5CN(C)Cc6c(Cl)cc(Cl)cc65)cc4C2=O)C3)C1 (stereo partly drawn) [Embodiment J2] | 0.32 | 0.05
CN1Cc2c(Cl)cc(Cl)cc2C(c2ccc3c(c2)C(=O)N(CCOCCOCCOCCNC(=O)[C@@H](O)[C@@H](O)C(=O)NCCOCCOCCOCCN2Cc4ccc(C5CN(C)Cc6c(Cl)cc(Cl)cc65)cc4C2=O)C3)C1 (stereo partly drawn) [Embodiment J3] | 0.26 | 0.08
CN1Cc2c(Cl)cc(Cl)cc2C(c2ccc3c(c2)C(=O)N(CCOCCOCCNC(=O)[C@H](O)[C@H](O)[C@@H](O)[C@@H](O)C(=O)NCCOCCOCCN2Cc4ccc(C5CN(C)Cc6c(Cl)cc(Cl)cc65)cc4C2=O)C3)C1 (stereo partly drawn) [Embodiment J4] | 0.25 | 0.05
CN1Cc2c(Cl)cc(Cl)cc2[C@H](c2cccc(S(=O)(=O)NCCOCCOCCNC(=O)NCCCCNC(=O)NCCOCCOCCNS(=O)(=O)c3cccc([C@@H]4CN(C)Cc5c(Cl)cc(Cl)cc54)c3)c2)C1 [Tenapanor, reference compound] | 0.74 | 0.56
